Key:
Tyrosinase = molecular target: T1, Tyrosinase (Agaricus bisporus, UniProt O42713); experiment: Inhibition of diphenolase activity of mushroom tyrosinase assessed as decrease in L-DOPA chrome formation using L-DOPA as substrate preincubated with enzyme for 10 mins prior to substrate addition measured for 10 mins by spectrophotometric assay
T1 sequence (O42713 whole entry): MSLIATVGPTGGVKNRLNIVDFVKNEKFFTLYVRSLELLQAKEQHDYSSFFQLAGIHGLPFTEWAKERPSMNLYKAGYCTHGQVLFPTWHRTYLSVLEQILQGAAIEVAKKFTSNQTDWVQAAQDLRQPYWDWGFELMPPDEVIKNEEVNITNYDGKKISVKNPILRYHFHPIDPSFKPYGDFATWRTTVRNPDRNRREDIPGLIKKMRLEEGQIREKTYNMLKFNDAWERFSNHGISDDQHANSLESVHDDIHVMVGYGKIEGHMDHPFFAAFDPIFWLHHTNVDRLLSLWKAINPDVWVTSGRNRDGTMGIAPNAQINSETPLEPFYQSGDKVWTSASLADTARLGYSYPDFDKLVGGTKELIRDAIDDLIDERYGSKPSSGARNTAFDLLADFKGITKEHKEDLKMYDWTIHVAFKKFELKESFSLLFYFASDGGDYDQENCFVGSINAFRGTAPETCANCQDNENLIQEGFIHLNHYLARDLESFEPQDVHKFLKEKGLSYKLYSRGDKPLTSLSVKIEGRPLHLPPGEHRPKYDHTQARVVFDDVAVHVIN

[1] = Cytotoxicity against mouse B16F10 cells assessed as cell viability at 20 ug/ml after 72 hrs by micro-culture MTT assay; assay type: cell-based, B16-F10; settings: read-out: Activity
B16-F10 = experiment: Inhibition of melanin production in mouse B16F10 cells at 20 ug/ml after 72 hrs; assay type: functional; settings: B16-F10, 72 h

| IC50 (Tyrosinase) | Structure (SMILES) | viability at 72 h, 20 ug/ml [1] | inhibition at 20 µg/mL (B16-F10) |
| --- | --- | --- | --- |
| 4.33 µM | CC(=O)Oc1c(/N=N/c2ccc(C3=N/C(=C/c4ccc(F)cc4)C(=O)O3)cc2)ccc2ccccc12 | 72.1% | 31.3% |
| 1.44 µM | CN(C)c1ccc(/N=N/c2ccc(C3=N/C(=C/c4ccc(OC(F)(F)F)cc4)C(=O)O3)cc2)cc1 | 67.3% | 34.3% |
| 3.04 µM | CC(=O)Oc1ccc2ccccc2c1/N=N/c1ccc(C2=N/C(=C/c3ccc(OC(F)(F)F)cc3)C(=O)O2)cc1 | 68.7% | 35.6% |
| 3.91 µM | CC(=O)Oc1ccc2ccccc2c1/N=N/c1ccc(C2=N/C(=C/c3ccc(F)cc3)C(=O)O2)cc1 | 66.7% | 32.5% |
| 2.01 µM | CN(C)c1ccc(/N=N/c2ccc(C3=N/C(=C/c4ccc(F)cc4)C(=O)O3)cc2)cc1 | 71.9% | 35.7% |
| 3.98 µM | CC(=O)Oc1c(/N=N/c2ccc(C3=N/C(=C/c4ccc(OC(F)(F)F)cc4)C(=O)O3)cc2)ccc2ccccc12 | 73.5% | 33.4% |

From ChEMBL document CHEMBL2346550, “Synthesis of novel azo compounds containing 5(4H)-oxazolone ring as potent tyrosinase inhibitors” (Bioorg Med Chem, 2013)
